Earlier results, collected in paper PMC2948132 (The Open Cardiovascular Medicine Journal, 2010).

Tests used:
[1] = system: complement-mediated ischemia/reperfusion injury
[2] = system: classical or alternative C3 convertase; conditions: ref [19]-[22]
[3] = system: primate-derived complement; conditions: reference not given

For sCR1: Soluble complement receptor1, the “protection against IRI, in words” value ([1]; ref [45],[46]) is listed as “successful in offering protection against IRI”.

In the case of Compstatin, the “C3 convertase inhibition, in words” value [2] is given as “known to inhibit classical or alternative C3 convertase by preventing C3 cleavage” and the “species specificity of complement inhibition, in words” value [3] is given as “only inhibits primate-derived complement”.

For “TP20: soluble CR1 decorated with fucosylated tetrasaccharide sialyl Lewisx”, the “efficacy in animal models of transplantation and IR injury, in words” value ([1]; ref [11],[14],[49],[50]) is listed as “effective”.
